Measured values reported in patent US11358967B2 (Boehringer Ingelheim International GmbH, priority 2016, dated 2022).

Molecular target: T1, RORγ (Homo sapiens, UniProt P51449)
T1 construct: expressed in transfected cells; host or cells: HEK 293 cells, transiently transfected
T1 sequence (P51449 269-508 limits assumed): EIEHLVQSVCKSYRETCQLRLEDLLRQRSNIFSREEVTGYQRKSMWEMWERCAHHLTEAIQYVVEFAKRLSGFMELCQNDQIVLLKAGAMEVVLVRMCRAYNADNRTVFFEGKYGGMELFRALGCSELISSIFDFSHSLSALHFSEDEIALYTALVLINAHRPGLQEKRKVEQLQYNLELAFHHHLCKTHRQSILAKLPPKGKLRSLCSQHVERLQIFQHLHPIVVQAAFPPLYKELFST
Test: Reporter Gene Assay (RGA): RORγ transactivation of a luciferase reporter in transiently transfected HEK 293 cells
Type: cell-based
Conditions: HEK 293 cells cotransfected with pGL4.3 luc2P/GAL4UAS and pBIND Gal4DBD hRORC LBD; 20-24 h incubation; luciferase readout
Protocol: Reporter Gene Assay (RGA)
A nuclear receptor transactivation assay is performed to quantitate the ability of test compounds to inhibit RORγ transactivation of a luciferase reporter. […] The system uses transiently transfected HEK 293 cells cotransfected with two plasmids (pGL4.3, luc2P/GAL4UAS/Hygro, and pBIND, Gal4DBD hRORC LBD1-3). The positive control is co-transiently transfected with both plasmids, and the negative control contains the pGL4.3 promoter sequence. Assays are assembled in 384 well plates where transiently transfected cells and test compound at varying concentrations are incubated for 20-24 h. The next day, assays plates are taken out and equilibrated at RT for 20-30 minutes. Bright-Glo™ Luciferase Assay System is used to detect Luciferase production. After addition of Bright GLO detection reagent, the plates are incubated at RT for 20 minutes. The plates are read on an Envision plate reader to measure luminescence signal. The RLU signal is converted to POC relative to control and blank wells.
Compound Dilution Buffer:
Bright Glo Luciferase Assay System: Promega #E2620
Thaw lysis buffer provided in kit, add 100 mL lysis buffer to substrate powder.

SMILES | IC50
CCS(=O)(=O)c1ccc(CNc2nc3ncc(-c4c(OC)ncnc4C4CC4)nc3n([C@@H](C)C3CC3)c2=O)nc1 [Example 3] | 149 nM
CCS(=O)(=O)c1ccc(CNc2nc3ncc(-c4c(C)ncnc4C4CC4)nc3n([C@@H](C)C3CC3)c2=O)nc1 [Example 4] | 269 nM
CCS(=O)(=O)c1ccc(CNc2nc3ncc(-c4nccnc4C4CC4)nc3n([C@@H](C)C3CC3)c2=O)nc1 [Example 6] | 454 nM
CC[C@H](C)n1c(=O)c(NCc2ccc(S(=O)(=O)CC)cn2)nc2ncc(-c3c(OC)ncnc3C3CC3)nc21 [Example 7] | 210 nM
CC[C@H](C)n1c(=O)c(NCc2ccc(S(=O)(=O)CC)nc2)nc2ncc(-c3c(C)ncnc3C3CC3)nc21 [Example 10] | 2740 nM
CCS(=O)(=O)c1ccc(CNc2nc3nnc(-c4c(C)ncnc4C4CC4)cc3n([C@@H](C)C3CC3)c2=O)nc1 [Example 12] | 2900 nM

The remaining molecules from weak to strong by IC50, led by results:

IC50 | SMILES
1330 nM | CC[C@H](C)n1c(=O)c(NCc2ccc(S(C)(=O)=O)cn2)nc2ncc(-c3c(C)ncnc3C3CC3)nc21 [Example 9]
338 nM | CC[C@H](C)n1c(=O)c(NCc2ccc(S(=O)(=O)CC)cn2)nc2ncc(-c3c(C)ncnc3C3CC3)nc21 [Example 8]
274 nM | CCS(=O)(=O)c1ccc(CNc2nc3ncc(-c4c(C)nc(N)nc4C4CC4)nc3n([C@@H](C)C3CC3)c2=O)nc1 [Example 5]
